Values of other authors in patent US20250302889A1, “Ingestible Nutritive Compositions With Prebiotics, Probiotics, and Postbiotics” (First Day Life, Inc., priority 2024, published 2025).

How the values were obtained:
[1] = 24 hours after injection, vs carrageenan control group
[2] = 24 hours after injection, vs carrageenan control group; remark: listed apart in the source
[3] = 24 hours; probiotics 10^8 CFUs, diclofenac sodium 150 mg/kg, single dose

## O=C(O)Cc1ccccc1Nc1c(Cl)cccc1Cl [diclofenac sodium]
[1]
  motility test score: scored significantly higher
[2]
  stair climbing activity (steps climbed): climbed significantly more steps
[3]
  inhibition of edema: about 34%
